Measured values taken from patent US8217029B2, “Oxazolidinone antibiotics” (Actelion Pharmaceuticals Ltd, priority 2007, dated 2012).
In brackets after ≈: the same amount, converted by molar mass.

Each molecule was assayed on S aureus A798 (assay: Minimal inhibitory concentration (MIC), microdilution method in cation-adjusted Mueller-Hinton Broth following NCCLS guidelines). Conditions: pH of test medium 7.2-7.3.
Format: cell-based
Experimental: These assays have been performed following the description given in “Methods for dilution Antimicrobial Susceptibility Tests for Bacteria that Grow Aerobically, 4th ed.; Approved standard: NCCLS Document M7-A4; National Committee for Clinical Laboratory Standards Villanova, Pa., USA, 1997”. Minimal inhibitory concentrations (MICs; mg/l) were determined in cation-adjusted Mueller-Hinton Broth by a microdilution method following NCCLS guidelines (National Committee for Clinical Laboratory Standards. Methods for Dilution Antimicrobial Susceptibility). The pH of the test medium was 7.2-7.3. All Example compounds were tested against several Gram positive and Gram negative bacteria.
`COc1ccc2nccc(N3CCN(C[C@@H]4CN(c5ccc(F)c(Cl)c5)C(=O)O4)CC3)c2n1` [Example 17, (R)-3-(3-Chloro-4-fluoro-phenyl)-5-[4-(6-methoxy-[1,5]naphthyridin-4-yl)-piperazin-1-ylmethyl]-oxazolidin-2-one] gave an MIC of no more than 0.031 µg/mL.
With `COc1ccc2nccc(N3CCN(C[C@@H]4CN(c5ccc(C)c(C(F)(F)F)c5)C(=O)O4)CC3)c2n1` [Example 18, (R)-5-[4-(6-Methoxy-[1,5]naphthyridin-4-yl)-piperazin-1-ylmethyl]-3-(4-methyl-3-trifluoromethyl-phenyl)-oxazolidin-2-one] the MIC was no more than 0.031 µg/mL.
`COc1ccc2nccc(N3CCN(C[C@@H]4CN(c5ccc6ncsc6c5)C(=O)O4)CC3)c2n1` [Example 19, (R)-3-Benzothiazol-6-yl-5-[4-(6-methoxy-[1,5]naphthyridin-4-yl)-piperazin-1-ylmethyl]-oxazolidin-2-one] was tested, and the MIC was no more than 0.031 µg/mL.
For `COc1ccc2nccc(N3CCN(C[C@@H]4CN(c5ccc(OC(F)F)cc5)C(=O)O4)CC3)c2n1` [Example 20, (R)-3-(4-Difluoromethoxy-phenyl)-5-[4-(6-methoxy-[1,5]naphthyridin-4-yl)-piperazin-1-ylmethyl]-oxazolidin-2-one], the MIC was no more than 0.031 µg/mL.
For `COc1ccc2nccc(N3CCN(C[C@@H]4CN(c5cccc(C#N)c5)C(=O)O4)CC3)c2n1` [Example 21, 3-{(R)-5-[4-(6-Methoxy-[1,5]naphthyridin-4-yl)-piperazin-1-ylmethyl]-2-oxo-oxazolidin-3-yl}-benzonitrile], the MIC was 0.25 µg/mL (≈ 0.562 µM).
`COc1ccc2nccc(N3CCN(C[C@@H]4CN(c5ccc6c(c5)NC(=O)CS6)C(=O)O4)CC3)c2n1` [Example 22, 6-{(R)-5-[4-(6-Methoxy-[1,5]naphthyridin-4-yl)-piperazin-1-ylmethyl]-2-oxo-oxazolidin-3-yl}-4H-benzo[1,4]thiazin-3-one] gave an MIC of no more than 0.031 µg/mL.
`COc1ccc2nccc(N3CCN(C[C@@H]4CN(c5ccc(N6CCCC6)cc5)C(=O)O4)CC3)c2n1` [Example 23, (R)-5-[4-(6-Methoxy-[1,5]naphthyridin-4-yl)-piperazin-1-ylmethyl]-3-(4-pyrrolidin-1-yl-phenyl)-oxazolidin-2-one] showed an MIC of 2 µg/mL (≈ 4.09 µM).
Work on `COc1cccc(N2C[C@@H](CN3CCN(c4ccnc5ccc(OC)nc45)CC3)OC2=O)c1` [Example 24, (R)-5-[4-(6-Methoxy-[1,5]naphthyridin-4-yl)-piperazin-1-ylmethyl]-3-(3-methoxy-phenyl)-oxazolidin-2-one] yielded an MIC of 0.25 µg/mL (≈ 0.556 µM).
`CCCc1ccc(N2C[C@@H](CN3CCN(c4ccnc5ccc(OC)nc45)CC3)OC2=O)cc1` [Example 25, (R)-5-[4-(6-Methoxy-[1,5]naphthyridin-4-yl)-piperazin-1-ylmethyl]-3-(4-propyl-phenyl)-oxazolidin-2-one] showed an MIC of no more than 0.031 µg/mL.
`CCc1ccc(N2C[C@@H](CN3CCN(c4ccnc5ccc(OC)nc45)CC3)OC2=O)cc1` [Example 26, (R)-3-(4-Ethyl-phenyl)-5-[4-(6-methoxy-[1,5]naphthyridin-4-yl)-piperazin-1-ylmethyl]-oxazolidin-2-one] was tested, and the MIC was no more than 0.031 µg/mL.
For `COc1ccc2nccc(N3CCN(C[C@@H]4CN(c5ccc(C)c(C)c5)C(=O)O4)CC3)c2n1` [Example 27, (R)-3-(3,4-Dimethyl-phenyl)-5-[4-(6-methoxy-[1,5]naphthyridin-4-yl)-piperazin-1-ylmethyl]-oxazolidin-2-one], the MIC was no more than 0.031 µg/mL.
Work on `COc1ccc2nccc(N3CCN(C[C@@H]4CN(c5ccc(OC)c(Cl)c5)C(=O)O4)CC3)c2n1` [Example 28, (R)-3-(3-Chloro-4-methoxy-phenyl)-5-[4-(6-methoxy-[1,5]naphthyridin-4-yl)-piperazin-1-ylmethyl]-oxazolidin-2-one] yielded an MIC of 1 µg/mL (≈ 2.07 µM).
`COc1ccc2nccc(N3CCN(C[C@@H]4CN(c5ccc(F)c(F)c5)C(=O)O4)CC3)c2n1` [Example 29, (R)-3-(3,4-Difluoro-phenyl)-5-[4-(6-methoxy-[1,5]naphthyridin-4-yl)-piperazin-1-ylmethyl]-oxazolidin-2-one] showed an MIC of no more than 0.031 µg/mL.
Work on `COc1ccc2nccc(N3CCN(C[C@@H]4CN(c5ccc(F)c(C)c5)C(=O)O4)CC3)c2n1` [Example 30, (R)-3-(4-Fluoro-3-methyl-phenyl)-5-[4-(6-methoxy-[1,5]naphthyridin-4-yl)-piperazin-1-ylmethyl]-oxazolidin-2-one] yielded an MIC of 0.125 µg/mL (≈ 0.277 µM).
`COc1ccc2nccc(N3CCN(C[C@@H]4CN(c5ccc(Br)c(C)c5)C(=O)O4)CC3)c2n1` [Example 31, (R)-3-(4-Bromo-3-methyl-phenyl)-5-[4-(6-methoxy-[1,5]naphthyridin-4-yl)-piperazin-1-ylmethyl]-oxazolidin-2-one] showed an MIC of no more than 0.031 µg/mL.
`COc1ccc2nccc(N3CCN(C[C@@H]4CN(c5ccc(C)c(Br)c5)C(=O)O4)CC3)c2n1` [Example 32, (R)-3-(3-Bromo-4-methyl-phenyl)-5-[4-(6-methoxy-[1,5]naphthyridin-4-yl)-piperazin-1-ylmethyl]-oxazolidin-2-one] gave an MIC of no more than 0.031 µg/mL.
In the case of `COc1ccc2nccc(N3CCN(C[C@@H]4CN(c5ccc(OC)c(C(F)(F)F)c5)C(=O)O4)CC3)c2n1` [Example 33, (R)-5-[4-(6-Methoxy-[1,5]naphthyridin-4-yl)-piperazin-1-ylmethyl]-3-(4-methoxy-3-trifluoromethyl-phenyl)-oxazolidin-2-one], the MIC is reported as 4 µg/mL (≈ 7.73 µM).
For `COc1ccc2nccc(N3CCN(C[C@@H]4CN(c5cccc(N(C)C)c5)C(=O)O4)CC3)c2n1` [Example 34, (R)-3-(3-Dimethylamino-phenyl)-5-[4-(6-methoxy-[1,5]naphthyridin-4-yl)-piperazin-1-ylmethyl]-oxazolidin-2-one], the MIC was 0.125 µg/mL (≈ 0.27 µM).
`COc1ccc2nccc(N3CCN(C[C@@H]4CN(c5ccc6c(c5)OCO6)C(=O)O4)CC3)c2n1` [Example 35, (R)-3-Benzo[1,3]dioxol-5-yl-5-[4-(6-methoxy-[1,5]naphthyridin-4-yl)-piperazin-1-ylmethyl]-oxazolidin-2-one] showed an MIC of no more than 0.031 µg/mL.
`COc1ccc2nccc(N3CCN(C[C@@H]4CN(c5ccc(C)c(F)c5)C(=O)O4)CC3)c2n1` [Example 36, (R)-3-(3-Fluoro-4-methyl-phenyl)-5-[4-(6-methoxy-[1,5]naphthyridin-4-yl)-piperazin-1-ylmethyl]-oxazolidin-2-one] showed an MIC of no more than 0.031 µg/mL.
`COc1ccc2nccc(N3CCN(C[C@H]4CN(c5ccc6c(c5)OCCO6)C(=O)O4)CC3)c2n1` [Example 37, (S)-3-(2,3-Dihydro-benzo[1,4]dioxin-6-yl)-5-[4-(6-methoxy-[1,5]naphthyridin-4-yl)-piperazin-1-ylmethyl]-oxazolidin-2-one] was tested, and the MIC was 0.063 µg/mL (≈ 0.132 µM).
In the case of `COc1ccc2nccc(N3CCN(C[C@H]4CN(c5ccc(C)c(F)c5)C(=O)O4)CC3)c2n1` [Example 38, (S)-3-(3-Fluoro-4-methyl-phenyl)-5-[4-(6-methoxy-[1,5]naphthyridin-4-yl)-piperazin-1-ylmethyl]-oxazolidin-2-one], the MIC is reported as 0.063 µg/mL (≈ 0.14 µM).
`COc1ccc2nccc(N3CCN(C[C@H]4CN(c5ccc6c(c5)NC(=O)CS6)C(=O)O4)CC3)c2n1` [Example 39, 6-{(S)-5-[4-(6-Methoxy-[1,5]naphthyridin-4-yl)-piperazin-1-ylmethyl]-2-oxo-oxazolidin-3-yl}-4H-benzo[1,4]thiazin-3-one] was tested, and the MIC was no more than 0.031 µg/mL.
`COc1ccc2nccc(N3CCN(C[C@H]4CN(c5cccc(F)c5)C(=O)O4)CC3)c2n1` [Example 40, (S)-3-(3-Fluoro-phenyl)-5-[4-(6-methoxy-[1,5]naphthyridin-4-yl)-piperazin-1-ylmethyl]-oxazolidin-2-one] was tested, and the MIC was 0.125 µg/mL (≈ 0.286 µM).
Molecule `COc1ccc2nccc(N3CC[C@H](NC[C@@H]4CN(c5ccc6c(c5)OCCO6)C(=O)O4)C3)c2n1` [Example 41, (R)-3-(2,3-Dihydro-benzo[1,4]dioxin-6-yl)-5-{[(S)-1-(6-methoxy-[1,5]naphthyridin-4-yl)-pyrrolidin-3-ylamino]-methyl}-oxazolidin-2-one] has an MIC of no more than 0.031 µg/mL.
`COc1ccc2nccc(N3CC[C@@H](NC[C@@H]4CN(c5ccc6c(c5)OCCO6)C(=O)O4)C3)c2n1` [Example 42, (R)-3-(2,3-Dihydro-benzo[1,4]dioxin-6-yl)-5-{[(R)-1-(6-methoxy-[1,5]naphthyridin-4-yl)-pyrrolidin-3-ylamino]-methyl}-oxazolidin-2-one] gave an MIC of no more than 0.031 µg/mL.
`COc1ccc2ncc(F)c(N3CC(NC[C@@H]4CN(c5ccc6c(c5)NC(=O)CO6)C(=O)O4)C3)c2n1` [Example 45, 6-((R)-5-{[1-(3-Fluoro-6-methoxy-[1,5]naphthyridin-4-yl)-azetidin-3-ylamino]-methyl}-2-oxo-oxazolidin-3-yl)-4H-benzo[1,4]oxazin-3-one] was tested, and the MIC was no more than 0.031 µg/mL.
For `COc1ccc2ncc(F)c(N3CC(NC[C@@H]4CN(c5ccc(C)c(F)c5)C(=O)O4)C3)c2n1` [Example 46, (R)-5-{[1-(3-Fluoro-6-methoxy-[1,5]naphthyridin-4-yl)-azetidin-3-ylamino]-methyl}-3-(3-fluoro-4-methyl-phenyl)-oxazolidin-2-one], the MIC was no more than 0.031 µg/mL.
Work on `COc1ccc2ncc(F)c(N3CC(NC[C@@H]4CN(c5ccc6c(c5)OCCO6)C(=O)O4)C3)c2n1` [Example 47, (R)-3-(2,3-Dihydro-benzo[1,4]dioxin-6-yl)-5-{[1-(3-fluoro-6-methoxy-[1,5]naphthyridin-4-yl)-azetidin-3-ylamino]-methyl}-oxazolidin-2-one] yielded an MIC of no more than 0.031 µg/mL.
`COc1ccc2ncc(F)c(N3CC(NC[C@@H]4CN(c5ccc6c(c5)NC(=O)CS6)C(=O)O4)C3)c2n1` [Example 48, 6-((R)-5-{[1-(3-Fluoro-6-methoxy-[1,5]naphthyridin-4-yl)-azetidin-3-ylamino]-methyl}-2-oxo-oxazolidin-3-yl)-4H-benzo[1,4]thiazin-3-one] gave an MIC of no more than 0.031 µg/mL.
In the case of `COc1ccc2nccc(N3CC(NC[C@@H]4CN(c5ccc6c(c5)NC(=O)CS6)C(=O)O4)C3)c2c1` [Example 49, 6-((R)-5-{[1-(6-Methoxy-quinolin-4-yl)-azetidin-3-ylamino]-methyl}-2-oxo-oxazolidin-3-yl)-4H-benzo[1,4]thiazin-3-one], the MIC is reported as no more than 0.031 µg/mL.
